Common to all, as to assay type: in vivo
For assay [1], the system named is house flies. Briefly: Study of knock-down activity of house flies (direct atomization in a Kearns and March chamber). The following applies: for KT 50: concentration at 0.1 g/l, female house flies 4 days old, acetone (5%) and Isopar L; for knock-down power: general statement in the description. As to the method: (1) Study of knock-down activity of house flies
The test insects were female house flies 4 days old and the test was effected by direct atomization in a Kearns and March chamber using as solvent a mixture of acetone (5%) and Isopar L (petrol solvent) (quantity of solvent used, 2 ml in one second). 50 insects were used per treatment and checks were made every minute for 10 minutes, then at 15 minutes, and the KT50 was determined by the usual methods.

Assay [2] relates to cockroaches (Blatella germanica). Briefly: Study of activity by tarsal contact on cockroaches. As to conditions: male Blatella germanica; 1 hour on dried acetone deposit; mortality checked at 24 hours, 48 hours, 3 days and 5 days. The procedure:
(2) Study of activity by tarsal contact on cockroaches
The insects tested were male cockroaches (Blatella germanica) and the test was carried out by depositing an acetone solution of a certain concentration on the bottom of a Petri dish 20 cm in diameter. After this had dried, 20 male cockroaches were allowed to stay there per concentration for 1 hour, after which they were transferred to a healthy medium and their mortality was checked at 24 hours, 48 hours, 3 days and 5 days. The result was expressed as lethal concentration 50 (LC 50) in mg/m^2.

The test system of assay [3] is Tetranychus urticae. Kind of assay: Activity on Tetranychus urticae, test of lethal effect on adults. As to conditions: for LD 50: females on treated bean leaves, checked after 80 hours of contact. The procedure: (4) Activity on Tetranychus urticae, test of lethal effect on adults
Bean plants having two cotyledon leaves were used which were treated with a Fisher gun with an acetone solution of the product. After drying, 25 females of the acaridan Tetranychus urticae were placed on each leaf, that is 50 individuals per experimental dose per plant. The efficacity was checked after 80 hours of contact, and the LD 50 was indicated in mg/hl.

On to `C=CCn1cc(COC(=O)[C@@H]2[C@H](C=C(Br)Br)C2(C)C)cc1C#N` (relative stereo) [Example 54, [1-(2-propenyl)-2-cyano-1H-pyrrol-4-yl]methyl (1R,cis) 2,2-dimethyl-3-(2,2-dibromoethenyl)-cyclopropane carboxylate], for which the “KT 50” value in assay [1] is 4.7 min. The same measure, in the same setting: in the case of `C=CCn1ccc(COC(=O)[C@@H]2[C@H](/C=C(/F)C(=O)OCC)C2(C)C)c1` [Example 56, 1-(2-propenyl-1H-pyrrol-3-yl)-methyl (1R,cisΔE) 2,2-dimethyl-3-(2-fluoro-3-ethoxy 3-oxo-1-propenyl)-cyclopropane carboxylate] it was 4.0 min. Consider `C#CCn1cc(C(C#C)OC(=O)[C@@H]2[C@H](/C=C(/F)C(=O)OCC)C2(C)C)cc1C#N` (stereo partly drawn) [Example 57, [1-(2-propynyl)-2-cyano-1H-pyrrol-4-yl]-propyn-2-yl (1R,cisΔE) 2,2-dimethyl-3-[2-fluoro-3-ethoxy-3-oxo-1-propenyl]-cyclopropane carboxylate], for which the “KT 50” value in assay [1] is on record as 4.0 min.

With `C#CCn1ccc(COC(=O)[C@@H]2[C@H](/C=C(/F)C(=O)OC)C2(C)C)c1` [Example 4, [1-(2-propynyl)-1H-pyrrol-3-yl]-methyl (1R,cisΔE) 2,2-dimethyl-3-(3-methoxy-3-oxo-2-fluoro-1-propenyl)-cyclopropane carboxylate], the “KT 50” value in assay [1] is recorded as 2.4 min.

Take `C#CCn1ccc(C(C#N)OC(=O)[C@@H]2[C@H](/C=C(/F)C(=O)OCC)C2(C)C)c1` (stereo partly drawn) [Example 15, cyano-[1-(2-propynyl)-1H-pyrrol-3-yl]-methyl (1R,cisΔE) 2,2-dimethyl-3-(3-ethoxy-3-oxo-2-fluoro-1-propenyl)-cyclopropane carboxylate]: in assay [1], the “KT 50” value came to 1.8 min and the knock-down power result is on record as “particularly remarkable”. Take `C#CCn1ccc(COC(=O)[C@@H]2[C@H](/C=C(/F)C(=O)OCC)C2(C)C)c1C#N` [Example 52, [1-(2-propynyl)-2-cyano-1H-pyrrol-3-yl]methyl (1R,cis) 2,2-dimethyl-3-(2-fluoro-2-ethoxy-2-oxo-1-propenyl)cyclopropane carboxylate]: in assay [1], the “KT 50” value was found to be 1.5 min. On to `C#CCn1cc(COC(=O)[C@@H]2[C@H](/C=C(/F)C(=O)OCC)C2(C)C)c(C(F)(F)F)c1` [Example 72, [1-(2-propynyl)-3,3,3-trifluoromethyl-1H-pyrrol-4-yl]methyl (1R,cis,ΔE) 2,2-dimethyl-3-[2-fluoro-3-ethoxy-3-oxo-1-propenyl]-cyclopropane carboxylate], for which the “KT 50” value in assay [1] came out at 3.8 min. The “lethal concentration 50 (LC 50)” value in assay [2] is 6.7 mg/m^2. `C=CCn1ccc(C(C#N)OC(=O)[C@@H]2[C@H](C=C(Br)Br)C2(C)C)c1` (stereo partly drawn) [Example 50, (R,S)-cyano-[1-(2-propenyl)-1H-pyrrol-3-yl]methyl (1R,cis) 2,2-dimethyl-3-(2,2-dibromoethenyl)cyclopropane carboxylate]: the “KT 50” value in assay [1] turned out to be 3.5 min. Same read-out and setting: the result for `C#CCn1ccc(COC(=O)[C@@H]2[C@H](C=C(Br)Br)C2(C)C)c1` (relative stereo) [Example 6, [1-(2-propynyl)-1H-pyrrol-3-yl]-methyl (1R,cis) 2,2-dimethyl-3-(-dibromoethenyl)-cyclopropane carboxylate] reads 4.7 min. On the same count and under the same terms, in the case of `C=CCn1cc(C(C#N)OC(=O)[C@@H]2[C@H](C=C(Br)Br)C2(C)C)cc1C#N` (stereo partly drawn) [Example 55, (R,S)-cyano-[1-(2-propenyl)-2-cyano-1H-pyrrol-4-yl]-methyl (1R,cis) 2,2-dimethyl-3-(2,2-dibromoethenyl)-cyclopropane carboxylate] it was 8.7 min; in that of `C#CCn1ccc(COC(=O)[C@@H]2[C@H](/C=C(/F)C(=O)OC(C)(C)C)C2(C)C)c1` [Example 5, [1-(2-propynyl)-1H-pyrrol-3-yl]-methyl (1R,cis,ΔE) 2,2-dimethyl-3-(3-tert-butoxy-3-oxo-2-fluoro-1-propenyl)-cyclopropane carboxylate], 3.2 min; in that of `CCOC(=O)/C(F)=C\[C@H]1[C@@H](C(=O)OCc2cc(C#N)n(C/C=C\Cl)c2)C1(C)C` [Example 65, [2-cyano-[1-(3-chloro-2-(Z)-propenyl]-1H-pyrrol-4-yl]-methyl (1R,cis,ΔE) 2,2-dimethyl-3-(2-fluoro-3-ethoxy-3-oxo-1-propenyl)-cyclopropane carboxylate], 3.1 min.

Turning to `C#CCn1ccc(COC(=O)[C@@H]2[C@H](/C=C(/F)C(=O)OC(C)(C)C)C2(C)C)c1C(F)(F)F` [Example 40, [2-trifluoromethyl-1-(2-propynyl)-1H-pyrrol-3-yl]-methyl (1R,cis,ΔE) 2,2-dimethyl-3-(3-tertbutyloxy-3-oxo-2-fluoropenyl)-cyclopropane carboxylate], in assay [1], the “KT 50” value worked out at 5.6 min and the knock-down power result is “particularly remarkable”. Also, in assay [3] (conclusion of the test), the “acaricidal effect on Tetranychus urticae” value is “remarkable acaricidal effect”. Also, the “LD 50” value in assay [3] came out at 32 mg/hl. Take `C#CCn1cc(COC(=O)[C@@H]2[C@H](/C=C(/F)C(=O)OC(C)(C)C)C2(C)C)c(C(F)(F)F)c1` [Example 45, [1-(2-propynyl)-3-trifluoromethyl)-1H-pyrrol-4-yl]methyl (1R,cisΔE) 2,2-dimethyl-3-[2-fluoro-3-oxo-3-tertbutoxypropenyl]-cyclopropane carboxylate]: in assay [1], the “KT 50” value is 6.1 min. For the same compound, in assay [2], the “lethal concentration 50 (LC 50)” value came to 6.4 mg/m^2. Further, in assay [3], the “LD 50” value came out at 264 mg/hl. Consider `C#CCn1ccc(COC(=O)[C@@H]2[C@H](/C=C\C(=O)OC(C)(C)C)C2(C)C)c1` [Example 3, [1-(2-propynyl)-1H-pyrrol-3-yl]-methyl (1R,cis,ΔZ) 2,2-dimethyl-3-(3-tert-butyloxy-3-oxo-1-propenyl)-cyclopropane carboxylate], for which the “KT 50” value in assay [1] was determined as 5.8 min.

As to `C#CCn1ccc(COC(=O)[C@@H]2[C@H](C=C(Br)Br)C2(C)C)c1C#N` [Example 26], in assay [1], the “KT 50” value is 3.5 min.

Consider `C#CCn1ccc(COC(=O)[C@@H]2[C@H](/C=C\C(=O)OC)C2(C)C)c1` [Example 1, [1-(2-propynyl)-1H-pyrrol-3-yl]-methyl (1R,cisΔZ) 2,2-dimethyl-3-(3-methoxy-3-oxo-1-propenyl)-cyclopropane carboxylate], for which, in assay [1], the “KT 50” value came out at 1.3 min and the knock-down power result is on record as “particularly remarkable”. Take `C#CCn1ccc(COC(=O)[C@@H]2[C@H](/C=C\C(=O)OC)C2(C)C)c1C#N` [Example 51, [1-(2-propynyl)-2-cyano-1H-pyrrol-3-yl]methyl (1R,cis) 2,2-dimethyl-3-(3-methoxy-3-oxo-1-propenyl)cyclopropane carboxylate]: the “KT 50” value in assay [1] amounted to 1.9 min.

Take `C#CCn1cc(COC(=O)[C@@H]2[C@H](/C=C(/F)C(=O)OCC)C2(C)C)cc1C(F)(F)F` [Example 70, [1-(2-propynyl)-2,2,2-trifluoromethyl-1H-pyrrol-4-yl]-methyl (1R,cis,ΔE) 2,2-dimethyl-3-[2-fluoro-3-ethoxy-3-oxo-1-propenyl]-cyclopropane carboxylate]: the “KT 50” value in assay [1] was determined as 3.9 min. Further, the “lethal concentration 50 (LC 50)” value in assay [2] is 4.5 mg/m^2. The “LD 50” value in assay [3] is 2126 mg/hl. In the case of `C#CCn1ccc(COC(=O)[C@@H]2[C@H](/C=C(/F)C(=O)OCC)C2(C)C)c1` [Example 2, [1-(2-propynyl)-1H-pyrrol-3-yl]-methyl (1R,cisΔE) 2,2-dimethyl-3-(3-ethoxy-3-oxo-2-fluoro-1-propenyl)-cyclopropane carboxylate], in assay [1], the “KT 50” value is 1.6 min and the knock-down power result was “particularly remarkable”. In the case of `C#CCn1cc(C(C)OC(=O)[C@@H]2[C@H](/C=C(/F)C(=O)OCC)C2(C)C)cc1C#N` (stereo partly drawn) [Example 60, [1-(2-propynyl)-2-cyano-1H-pyrrol-4-yl]-ethyl (1R,cisΔE) 2,2-dimethyl-3-(2-fluoro-3-ethoxy-3-oxo-1-propenyl)-cyclopropane carboxylate], the “KT 50” value in assay [1] is 1.8 min. Same read-out and setting: in the case of `CCOC(=O)/C(F)=C\[C@H]1[C@@H](C(=O)OCc2cc(C#N)n(C/C=C/Cl)c2)C1(C)C` [Example 66, [2-cyano-1-[3-chloro-2-(E)-propenyl]-1H-pyrrol-4-yl]-methyl (1R,cisΔE) 2,2-dimethyl-3-[2-fluoro-3-ethoxy-3-oxo-1-propenyl]-cyclopropane carboxylate] it was 7.9 min; in that of `C#CCn1ccc(C(C#N)OC(=O)[C@@H]2[C@H](/C=C(/F)C(=O)OCC)C2(C)C)c1C#N` (stereo partly drawn) [Example 67, (R,S) cyano[1-(2-propynyl)-2-cyano-1H-pyrrol-3-yl]-methyl (1R,cisΔE) 2,2-dimethyl-3-(2-fluoro-3-ethoxy-3-oxo-1-propenyl)-cyclopropane carboxylate], 3.8 min. Same read-out and setting: the result for `C=CCn1cc(COC(=O)[C@@H]2[C@H](/C=C(/F)C(=O)OCC)C2(C)C)cc1C#N` [Example 53, [1-(2-propenyl)-2-cyano-1H-pyrrol-4-yl]methyl (1R,cisΔE) 2,2-dimethyl-3-[2-fluoro-2-ethoxy-2-oxo-1-propenyl]cyclopropane carboxylate] reads 2.4 min. Same read-out and setting: the result for `C#CCn1cc(C(C#N)OC(=O)[C@@H]2[C@H](/C=C(/F)C(=O)OCC)C2(C)C)cc1C#N` (stereo partly drawn) [Example 44] reads 2.2 min.

Source of the values: patent publication US4737513A, “Novel pyrrole derivatives” (Roussel Uclaf, priority 1984, dated 1988).
